We go through 2 molecules from PMC3823643 (Nature structural & molecular biology, 2013).

Molecules are shown by their SMILES.

In assay [1] the target is T1, Danio rerio (zebrafish) DHFR (zDHFR) (Danio rerio, UniProt A0A8M1P929).
T1 sequence (A0A8M1P929 1-190): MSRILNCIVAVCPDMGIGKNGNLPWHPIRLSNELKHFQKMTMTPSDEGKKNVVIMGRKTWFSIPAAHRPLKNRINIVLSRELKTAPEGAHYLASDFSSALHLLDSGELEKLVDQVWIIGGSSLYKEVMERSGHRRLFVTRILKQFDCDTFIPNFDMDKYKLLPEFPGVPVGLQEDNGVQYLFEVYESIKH
The experiment in a line: […] HSQC NMR. Type of assay: binding.

Assay [2] addresses E. coli dihydrofolate reductase (ecDHFR) N23PP S148A (Escherichia coli, UniProt P0ABQ4, INS23P/N23P/S148A). Briefly: product inhibition of initial rate, absorbance at […] nm. Type of assay: biochemical.
Assay [3] has as its target T2, human dihydrofolate reductase (hDHFR) (Homo sapiens, UniProt P00374).
T2 sequence (P00374 1-187): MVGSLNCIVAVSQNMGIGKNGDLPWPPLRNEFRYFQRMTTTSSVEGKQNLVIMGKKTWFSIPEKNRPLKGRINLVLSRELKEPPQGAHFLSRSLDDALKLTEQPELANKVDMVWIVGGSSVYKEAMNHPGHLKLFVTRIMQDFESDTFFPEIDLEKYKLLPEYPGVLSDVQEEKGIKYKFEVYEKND
Briefly: X-ray crystal structure. It counts as biochemical.

The target of assay [4] is E. coli dihydrofolate reductase (ecDHFR) (Escherichia coli, UniProt P0ABQ4). The experiment in a line: product inhibition of initial rate, absorbance at […] nm. Type of assay: biochemical.

Turning to `Nc1nc(=O)c2nc(CNc3ccc(C(=O)N[C@@H](CCC(=O)O)C(=O)O)cc3)cnc2[nH]1` [FOL, folic acid], the “15N HSQC NMR” value in assay [1] is “Each panel shows a superposition of E– NADP^+–FOL (model Michaelis complex, black) and E–NADP^+– THF”.
Regarding `NC(=O)c1ccc[n+]([C@@H]2O[C@H](COP(=O)(O)OP(=O)(O)OC[C@H]3O[C@@H](n4cnc5c(N)ncnc54)[C@H](OP(=O)(O)O)[C@@H]3O)[C@@H](O)[C@H]2O)c1` [NADP+, NADP^+], the IC50 in assay [2] was 1270 µM; in assay [3] it was ~620 µM; in assay [4], 6520 µM.
